# Laboratory results published in PubChem BioAssay (NCI).
#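 Step 1: Grow cells in 96-well plates. Step 2: Expose to compound for 48 hours at 5 concentrations. Step 3: Interpolate endpoints linearly; if unreached, use highest concentration. TGI: concentration producing complete growth inhibition.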
# Assays:
# Test in all cases: DTP human tumour cell line panel, 48 h
# [1] = tested on: MALME-3M melanoma
# [2] = tested on: NCI-H460 lung
# [3] = tested on: UO-31 renal
# [4] = tested on: DMS 114 small cell lung
# [5] = tested on: HCT-15 colon
# [6] = tested on: DMS 273 small cell lung
# [7] = tested on: MOLT-4 leukemia
# [8] = tested on: HL-60(TB) leukemia
# [9] = tested on: DLD-1 colon
# [10] = tested on: HCT-116 colon
# [11] = tested on: TK-10 renal
# [12] = tested on: SK-MEL-28 melanoma
# [13] = tested on: NCI-H522 lung
# [14] = tested on: SF-295 CNS
# [15] = tested on: K-562 leukemia
# [16] = tested on: LOX IMVI melanoma
# [17] = tested on: RXF 393 renal
# [18] = tested on: M14 melanoma
# [19] = tested on: CCRF-CEM leukemia
# [20] = tested on: SK-MEL-5 melanoma
# [21] = tested on: XF 498 CNS
# [22] = tested on: 786-0 renal
# [23] = tested on: RPMI-8226 leukemia
# [24] = tested on: UACC-257 melanoma
# [25] = tested on: KM12 colon
# [26] = tested on: ACHN renal
# [27] = tested on: HOP-18 NSCLC
# [28] = tested on: U251 CNS
# [29] = tested on: IGROV1 ovarian
# [30] = tested on: SN12C renal
# [31] = tested on: OVCAR-3 ovarian
# [32] = tested on: A549 NSCLC
# [33] = tested on: HOP-62 NSCLC
# [34] = tested on: COLO 205 colon
# [35] = tested on: OVCAR-8 ovarian
# [36] = tested on: SW-620 colon
# [37] = tested on: SNB-19 CNS
# [38] = tested on: UACC-62 melanoma
# [39] = tested on: M19-MEL melanoma
# [40] = tested on: NCI-H23 lung
# [41] = tested on: SK-MEL-2 melanoma
# [42] = tested on: EKVX NSCLC
# [43] = tested on: SK-OV-3 ovarian
# [44] = tested on: NCI-H226 lung
# [45] = tested on: SF-539 CNS
# [46] = tested on: LXFL 529 NSCLC
# [47] = tested on: HS 578T breast
# [48] = tested on: T-47D breast
# [49] = tested on: PC-3 prostate
# [50] = tested on: SR leukemia
# [51] = tested on: BT-549 breast
# [52] = tested on: SF-268 CNS
# [53] = tested on: HT29 colon
# [54] = tested on: OVCAR-4 ovarian
# [55] = tested on: SNB-78 CNS
# [56] = tested on: DU-145 prostate
# [57] = tested on: OVCAR-5 ovarian
# [58] = tested on: HCC-2998 colon
# [59] = tested on: MDA-MB-435
# [60] = tested on: NCI/ADR-RES ovarian
# [61] = tested on: SNB-75 CNS
# [62] = tested on: MDA-MB-231 breast
# [63] = tested on: CAKI-1 renal
# [64] = tested on: MDA-N
# [65] = tested on: A498 renal
# [66] = tested on: HOP-92 NSCLC
# [67] = tested on: KM20L2 colon
smiles,measurement,setting,value
O=c1ccc2ccc(O)c3c4c(=O)ccc5ccc(O)c(c1c23)c54,TGI,[1],1.83 µM
same,TGI,[2],11.6 µM
same,TGI,[3],3.71 µM
same,TGI,[4],3.63 µM
same,TGI,[5],2.69 µM
same,TGI,[6],3.97 µM
same,TGI,[7],8.53 µM
same,TGI,[8],3.64 µM
same,TGI,[9],3.13 µM
same,TGI,[10],2.83 µM
same,TGI,[11],5.86 µM
same,TGI,[12],5.28 µM
same,TGI,[13],3.08 µM
same,TGI,[14],9.29 µM
same,TGI,[15],5.59 µM
same,TGI,[16],2.63 µM
same,TGI,[17],2.42 µM
same,TGI,[18],3.22 µM
same,TGI,[19],3.77 µM
same,TGI,[20],2.59 µM
same,TGI,[21],3.27 µM
same,TGI,[22],4.81 µM
same,TGI,[23],9.12 µM
same,TGI,[24],6.71 µM
same,TGI,[25],3.43 µM
same,TGI,[26],6.75 µM
same,TGI,[27],3.72 µM
same,TGI,[28],3.3 µM
same,TGI,[29],3.64 µM
same,TGI,[30],4.37 µM
same,TGI,[31],11.7 µM
same,TGI,[32],12.2 µM
same,TGI,[33],4.86 µM
same,TGI,[34],3.73 µM
same,TGI,[35],10.7 µM
same,TGI,[36],5.08 µM
same,TGI,[37],4.85 µM
same,TGI,[38],1.65 µM
same,TGI,[39],2.16 µM
same,TGI,[40],3.46 µM
same,TGI,[41],3.34 µM
same,TGI,[42],8.46 µM
same,TGI,[43],8.61 µM
same,TGI,[44],5.28 µM
same,TGI,[45],3.2 µM
O=c1[nH]c2ccccc2nc1CBr,TGI,[1],8.66 µM
same,TGI,[46],3.21 µM
same,TGI,[47],42 µM
same,TGI,[2],29 µM
same,TGI,[3],11.2 µM
same,TGI,[48],31.1 µM
same,TGI,[49],25.1 µM
same,TGI,[5],26.2 µM
same,TGI,[50],2.44 µM
same,TGI,[6],10.4 µM
same,TGI,[7],4.35 µM
same,TGI,[8],0.721 µM
same,TGI,[9],22.8 µM
same,TGI,[10],21.3 µM
same,TGI,[51],21.4 µM
same,TGI,[11],20.7 µM
same,TGI,[12],25.6 µM
same,TGI,[13],1.49 µM
same,TGI,[52],31.1 µM
same,TGI,[14],43.2 µM
same,TGI,[15],9.5 µM
same,TGI,[53],22.8 µM
same,TGI,[16],3.24 µM
same,TGI,[54],13.4 µM
same,TGI,[55],65.6 µM
same,TGI,[17],7.72 µM
same,TGI,[18],22.8 µM
same,TGI,[56],37.1 µM
same,TGI,[19],1.45 µM
same,TGI,[20],23.2 µM
same,TGI,[21],3.51 µM
same,TGI,[57],33.7 µM
same,TGI,[22],9.11 µM
same,TGI,[23],9.97 µM
same,TGI,[24],27.3 µM
same,TGI,[25],10.1 µM
same,TGI,[26],27 µM
same,TGI,[27],19 µM
same,TGI,[28],23.8 µM
same,TGI,[29],11.3 µM
same,TGI,[30],24.5 µM
same,TGI,[31],4.22 µM
same,TGI,[32],39.2 µM
same,TGI,[33],45 µM
same,TGI,[34],17.6 µM
same,TGI,[58],56.2 µM
same,TGI,[59],25.5 µM
same,TGI,[35],34.7 µM
same,TGI,[36],17.5 µM
same,TGI,[37],52 µM
same,TGI,[38],21.3 µM
same,TGI,[60],51.1 µM
same,TGI,[39],22.8 µM
same,TGI,[61],34.2 µM
same,TGI,[40],29.1 µM
same,TGI,[62],23.3 µM
same,TGI,[63],19.6 µM
same,TGI,[41],22.6 µM
same,TGI,[42],9.87 µM
same,TGI,[64],24.6 µM
same,TGI,[43],53.3 µM
same,TGI,[65],> 53.1 µM
same,TGI,[66],11.8 µM
same,TGI,[44],37.3 µM
same,TGI,[67],32.9 µM
same,TGI,[45],21.4 µM
